Results on seven compounds are retold here after patent US20090203877A1, “X-RAY-DENSE CONJUGATE” (Eberhard-Karls-Universitaet Tuebingen Universitaetsklinkum, priority 2006, published 2009).

Data set [1] has as its system human malignant LN18 glioma cells. Put plainly: Cell viability / cell death (annexin-V-Alexa 568 binding, propidium iodide, FACS scatter morphology). In kind it is cell-based. The method, then:
All measurements were performed on living, non-fixed cells. […] All measurements were performed on living cells. […] All measurements were performed on living cells in triplicates. […] All measurements were performed on living cells.

For data set [2] the test system is unchanged. The data set can be described thus: Uptake/staining of cells by FITC-labelled conjugates (CLSM, FACS, semi-thin sections). Particulars: free compound co-incubated with conjugate 3 (260 μM). In kind it is cell-based. The protocol: The human malignant U373 and LN18 glioma cells were cultivated in 75 cm^2 culture flasks (Corning Costar) (70% confluency) under the conditions as described under 1.4, detached from the flask bottom with Accutase™ (PAA Laboratories) and in the following distributed on Eppendorf tubes (Eppendorf, Hamburg, Germany) (6×10^6 per tube). The cells in the first tube serve as a control (only PBS buffer only). The cells in the other ten tubes were each incubated with benzoic acid (BA), monoiodobenzoic acid (MIBA) or diiodobenzoic acid (DIBA) alone (260 μM), conjugate 3 alone (260 μM), conjugate 3 plus either BA, MIBA or DIBA (260 μM), respectively, and the conjugates 9, 10, and 11 alone. (260 μM).
(§1) After an incubation of 20 minutes at 37° C./5% CO2 the cells were washed three times with PBS buffer and centrifuged at 800 rpm (rounds per minute) for 5 minutes. The fluorescence was measured in Becton Dickinson FACSCalibur as described under 1.4. The computer tomography was performed as described under 1.5.1. The examinations were repeated two times. […]
The FACS analysis was performed as described under 1.4. The assay was repeated two times.
For the CT and FACS examinations human LN18 and U373 glioma cells were cultivated in 75 cm^2 culture flasks (70% confluency) (conditions as described under section 1). Accutase™ (PAA Laboratories) was added to detach the cell from the culture bottom. The cells were collected and then distributed on Eppendorf-tubes (6×10^6 cells per tube). […] The next three tubes were used for the coincubation of the cells either with trichlorobenzoic acid (TCBA), trifluorobenzoic acid (TFBA) or tribromophenyl Isocyanat (TBPI) and the NLS-FITC-conjugate 3 (260 μM). As control cells were used which were only either incubated with CIBA, FIBA, TBPI (in each case 260 μM in PBS) or with PBS-buffer (native control) alone. […] The computer tomography and FACS analysis of the cell centrifuges were performed as described in 1.5.1 or 1.4, respectively for three times.
All measurements were performed on living cells.
All measurements were performed on living cells in triplicates.
A part of the cells which were stained for the FACS analysis, was fixed by paraformaldehyl with 2% Agar, dehydrogenized in ethanol, embedded in Lowicryl K4M (Polysciences, Eppelheim, Germany) and according to the information of the manufacturer UV-polymerised at room temperature. Semi-thin sections (about 0.4 μm) were cut and evaluated by means of fluorescence microscopy.

For data set [3], the system named is human malignant U373 glioma cells. Put plainly: Cell viability / cell death (MTT test, propidium iodide, annexin-V-Alexa 568 binding, FACS scatter morphology). The following applies: 260 μM in PBS, 20 min, substance alone. The protocol: Human malignant U373-glioma cells were grown to 70% confluency in RPMI-1640 Ready Mix Medium containing L-Glutamine and 10% FBS-Gold (PAA laboratories, Pasching, Austria) at 37° C., 5% CO2 (vol/vol), in 4-well-plates (NUNC, Wiesbaden, Germany) with about 300,000 cells pro well. […] After this, the cells were washed three times with buffer and then incubated with Ready Mix Medium again. Cell viability was then assessed by the addition of methyl-thiazoyl-tetrazolium (MTT) salt (Sigma-Aldrich, Germany) at a concentration of 15 mg/ml. After 20 minutes, the production of formazan was investigated. When blue formazan granules were detected, propidium iodine (PI) was added to the medium (1 μM PI; Molecular Probes, Eugene, Oreg., USA) to detect cells with damaged cell membranes. […] Pictures were taken with a 3-CCD color video camera (MC3254P, Sony, Japan) and the Axiovision Software (Carl Zeiss, Jena, Germany). The intensity of cell fluorescence was recorded at the exposure time necessary for the production of the fluorescence images.
After imaging, Accutase™ (PAA laboratories, Pasching, Austria) was added to the wells to achieve detachment of the cells for further FACS analysis. Fluorescence was measured in a Becton Dickinson FACSCalibur. A total of 20,000 events per sample were analyzed. The investigations were performed in triplicate.
A sample of cells from each Eppendorf tube was subjected to the MTT test (described under 1.4) to determine microscopically whether the cells were viable. In vitro CT of the cell pellets was performed with a Somatom Sensation 16 (Siemens) which is used for routine clinical investigations.
Cells were incubated for 20 minutes with each of the conjugates dissolved in 0.1% DMSO/PBS at 260 μm. The cells were also incubated with TIBA and both of the non-TIBA-containing conjugates (3 and 4) separately in 0.1% DMSO/OBS at 260 μm. Both TIBA and the conjugates were dissolved in 0.1% DMSO/PBS at 260 μm for incubation due to the insolubility of TIBA (but not the conjugates) in pure PBS. As controls, the cells were incubated with PBS alone, 0.1% DMSO/PBS alone, and TIBA alone (260 μm in 0.1% DMSO/PBS).
The detection of phosphatidyl serine in the outer membrane leaflet of apoptotic cells was performed with the Annexin-V-Alexa™-568-reagent according to manufacturer's protocol (Roche Molecular Biochemicals, Indianapolis, USA). The confocal laser-scanning microscopy was performed on an inverted LSM 510 laser-scanning microscope (Carl Zeiss, Jena, Germany) (objectives: LD Achroplan 40×0.6, Plan Neofluar 20×0.50, 40×0.75). For fluorescence excitation, the 488 nm line of an argon-ion laser and the […] line of a helium-neon laser with appropriate beam splitters and barrier filters were used for FITC and Alexa respectively. Superimposed images of FITC- and Alexa-stained samples were created by overlaying coincident views. All measurements were performed on living, non-fixed cells.
Human malignant LN18 and U373 glioma cells were cultivated in four-well plates (NUNC, Wiesbaden, Germany) (about 300,000 cells per well) as described under 1.5. […] The cells were also coincubated either with CIBA, FIBA or TBPI as well as the NLS-FITC conjugate 3 (each 260 μM). As a control cells were used which were only incubated either with CIBA, FIBA or TBPI (260 μM in PBS) alone. After the incubation the cells were washed three times with PBS and in the following again incubated in Ready Mix Medium. The FITC-labelled conjugates and the Alexa-Annexin for the detection of phosphatidylserine as a signal of the cell death were localized with the confocal laser microscopy (CLSM) as in 1.6.1. All measurements were performed on living cells.
(In general: Tetrazolium dyes change colour on reduction, which living cells bring about.)

The subject of data set [4] is human vascular endothelial cells. Particulars: traditional contrast media; cited from earlier work.
Data set [5] concerns human malignant U373 glioma cells. Put plainly: Computer tomography, signal density of cell pellets. In kind it is cell-based. Particulars: 260 μM, 20 min. The method, then: For CT and FACS human U373 glioma cells were grown under the same conditions in 75 cm^2 culture flasks (Corning Costar, Bodenheim, Germany) (70% confluency). Accutase™ (PAA laboratories, Pasching, Austria) was added to achieve detachment of the cells which were harvested and subsequently aliquoted into Eppendorf tubes (6×10^6 cells per tube). As in the investigations performed by fluorescence microscopy, the cells in the first tube served as a control (PBS only). The cells in the other tubes were incubated with 260 μM Ultravist, 260 μM TIBA in PBS and 26 μM, 260 μM and 2.6 mM conjugates 1-4 in PBS. After a 20 minute incubation period at 37° C. in an atmosphere of 5% CO2, the cells were washed three times in PBS and centrifuged at 800 rpm for 5 minutes.
The inner ear spiral CT protocol consisted of: tube voltage 120 KV, effective mAs 550, time of imaging TI: 1.5, SL 0.75/0.75/4.5, FOV: 50 0/52, kernel: U70, window: intervertebral disc.
3D-images were obtained using InSpace Software (Syngo CT 2006G) (Siemens AG, Erlangen, Germany).
as §1
An Orbita CT spiral was used: tube voltage 120 KV, effective mAs 550, time of imaging TI: 1.5, SL 0.75/0.75/4.5, FOV: 50 0/52, GT: 0.0, kernel: U70, window: intervertebral disc. 3D images were made with the InSpace Software (Syngo CT 2006G) (Siemens AG, Erlangen, Germany). […]

Setting [6] is: 260 μM, 20 min, substance alone.
Where [7] appears, read: free compound co-incubated with conjugate 3 (260 μM).

Entries after “also recorded” stand apart in the source; their conditions may differ.

`O=C(O)c1ccc(I)cc1` [MIBA, 4-monoiodobenzoic acid, reference compound]: the “cell death / vitality (annexin-V-Alexa 568, propidium iodide)” value (“cell death / vitality” for short) in data set [1] (setting [6]) was “did not result in cytotoxic effects”; in data set [1] (setting [7]) it was “did not result in a binding of annexin-V-Alexa™ 568; also recorded: did not result to a considerable change”. Besides, in data set [2], the “staining rate / number of stained cells” value is on record as “did not result in a higher staining rate; also recorded: did not result to a considerable change”. For the same compound, the “cytotoxic effects / signs of cell death” value in data set [3] is listed as “did not result in cytotoxic effects”.
With `O=C(O)c1ccccc1` [BA, benzoic acid, reference compound], the “cell death / vitality” value in data set [1] (setting [6]) is “did not result in cytotoxic effects”; in data set [1] (setting [7]) it was “did not result to a considerable change”. Besides, the “staining rate / number of stained cells” value in data set [2] is “did not result to a considerable change”. The “cytotoxic effects / signs of cell death” value in data set [3] is “did not result in cytotoxic effects”.
In the case of `CC(=O)Nc1c(I)c(NC(C)=O)c(I)c(C(=O)O)c1I` [diatrizoate], the “concentration at which apoptosis is induced” value (from here on “concentration”) in data set [4] is recorded as 250 mg iodine per millilitre.
With `O=C(O)c1cc(I)ccc1I` [DIBA, 2,5-diiodobenzoic acid, reference compound], the “cell death / vitality” value in data set [1] (setting [6]) is on record as “did not result in cytotoxic effects”; in data set [1] (setting [7]), “did not result in a binding of annexin-V-Alexa™ 568; also recorded: did not result to a considerable change”. In addition, the “staining rate / number of stained cells” value in data set [2] is on record as “did not result in a higher staining rate; also recorded: did not result to a considerable change”. Also, the “cytotoxic effects / signs of cell death” value in data set [3] is “did not result in cytotoxic effects”.
For `CNC(=O)c1c(I)c(C(=O)NCC(=O)Nc2c(I)c(C(=O)O)c(I)c(C(=O)NCCO)c2I)c(I)c(N(C)C(C)=O)c1I` [ioxaglate], in data set [4], the “concentration” value is given as 250 mg iodine per millilitre.
For `COCC(=O)Nc1c(I)c(C(=O)NCC(O)CO)c(I)c(C(=O)N(C)CC(O)CO)c1I` (centres unmarked) [Ultravist, Iopromid, reference compound], the “concentration” value in data set [4] was 250 mg iodine per millilitre. In data set [5], the “CT signal density of cell pellets” value was “only low signal density values; also recorded: did not result in any increase in signal density”.
In the case of `CN(C(=O)CC(=O)N(C)c1c(I)c(C(=O)NC(CO)C(O)CO)c(I)c(C(=O)NC(CO)C(O)CO)c1I)c1c(I)c(C(=O)NC(CO)C(O)CO)c(I)c(C(=O)NC(CO)C(O)CO)c1I` (centres unmarked) [iotrolan], the “concentration” value in data set [4] was 250 mg iodine per millilitre.
